How the values were obtained:
Format in all cases: cell-based, human
U251 cells = assay: NTA exosome release assay
Experimental: To investigate the correlation between the malignant transition of hypoxic GMs and their production and release of exosomes, the secretion assay of exosomes was conducted via using nanoparticle tracking analysis (NTA). U251 cells were tested under normoxic or hypoxic condition.
Briefly, a represents Exo-FBS medium, b represents Sodium-L-lactate (20 mM), c represents BAPTA-AM, d represents BAPTA-AM with the pretreatment of Sodium-L-lactate (20 mM). All chemicals were dissolved in the Exo-FBS medium containing 1% DMSO. All data were shown as the mean±SEM. Significance level: **P<0.01, *P<0.05, hypoxia vs. normoxia, No-treatment vs. BAPTA-AM, MCT1 KD virus vs. Empty backbone virus (control 1), CD147 antisense vs. antisense control (control 2).

GMs = assay: Intracellular Ca2+ level (Fluo-4 AM Ca2+ assay / Fura Red imaging); conditions: FIG. 23B
Experimental: To further investigate whether the change of intracellular Ca^2+ concentrations could be associated with hypoxia-driven enhanced exosome release, […], AM Ca^2+ imaging and Fluo-4 AM Ca^2+ assay were conducted with normoxic- and hypoxic-U251 cells.
To recapitulate the hypoxia-induced acidic TME, sodium-L-lactates (20 mM) were applied to the culture medium of GMs.

HIF-1α = system: HIF-1α

With `C[C@H](O)C(=O)[O-].[Na+]` [sodium-L-lactate] the exosome release (U251 cells; GMs exposed to sodium-L-lactate 20 mM for 10 min, FIG. 23C) was “promote exosome release” and the “intracellular Ca2+ level” value (GMs; GMs, sodium-L-lactate 20 mM, 100 μl added to 2 ml medium) was “enhanced intracellular Ca^2+ level”.
For `CC(=O)OCOC(=O)CN(CC(=O)OCOC(C)=O)c1ccccc1OCCOc1ccccc1N(CC(=O)OCOC(C)=O)CC(=O)OCOC(C)=O` [BAPTA-AM], the exosome release (U251 cells; GMs with induction of MCT1 OE and CD147 OE, BAPTA-AM 20 μM, 100 μl added to 2.1 ml medium, FIG. 23A) was “marked decline in exosome release”, the exosome release (U251 cells; GMs, lactate-stimulated release, BAPTA-AM with pretreatment of sodium-L-lactate 20 mM, 10 min, FIG. 23C) was “blocked” and the exosome release (U251 cells; hypoxia-enhanced release from U251 cells, intracellular Ca2+ chelated with BAPTA-AM (20 μM)) was “blocked the enhanced release of exosomes”. For the same compound, the “intracellular Ca2+ level” value (GMs; GMs after sodium-L-lactate, BAPTA-AM 20 μM, 100 μl added to 2.1 ml medium) was “distinctive decline in intracellular Ca^2+ level”.
In the case of `[Cl-].[Cl-].[Co+2]` [CoCl2], the “HIF-1α expression and nuclear localization” value (HIF-1α) is reported as “increased HIF-1α expression and enhanced nuclear localization of HIF-1α”.
